Assay results: article PMC8621172, “Manipulating Estrogenic/Anti-Estrogenic Activity of Triphenylethylenes towards Development of Novel Anti-Neoplastic SERMs” (International Journal of Molecular Sciences, 2021)
“And” between values parts separate entries of the source, which are not always exact repeats. Identical values can stand only once.

What was measured:
human ERα = target: T1, human ERα (Homo sapiens, UniProt P03372); assay: Yeast estrogen screen (YES) assay, agonistic activity (β-galactosidase reporter); assay type: cell-based; settings: triplicates; for EC50: YES assay; for Estrogenic Activity (relative β-galactosidase activity): compounds at 1 µM, compared to DMSO (set as 1)
T1 construct: host or cells: Saccharomyces cerevisiae
T1 sequence (P03372 1-595): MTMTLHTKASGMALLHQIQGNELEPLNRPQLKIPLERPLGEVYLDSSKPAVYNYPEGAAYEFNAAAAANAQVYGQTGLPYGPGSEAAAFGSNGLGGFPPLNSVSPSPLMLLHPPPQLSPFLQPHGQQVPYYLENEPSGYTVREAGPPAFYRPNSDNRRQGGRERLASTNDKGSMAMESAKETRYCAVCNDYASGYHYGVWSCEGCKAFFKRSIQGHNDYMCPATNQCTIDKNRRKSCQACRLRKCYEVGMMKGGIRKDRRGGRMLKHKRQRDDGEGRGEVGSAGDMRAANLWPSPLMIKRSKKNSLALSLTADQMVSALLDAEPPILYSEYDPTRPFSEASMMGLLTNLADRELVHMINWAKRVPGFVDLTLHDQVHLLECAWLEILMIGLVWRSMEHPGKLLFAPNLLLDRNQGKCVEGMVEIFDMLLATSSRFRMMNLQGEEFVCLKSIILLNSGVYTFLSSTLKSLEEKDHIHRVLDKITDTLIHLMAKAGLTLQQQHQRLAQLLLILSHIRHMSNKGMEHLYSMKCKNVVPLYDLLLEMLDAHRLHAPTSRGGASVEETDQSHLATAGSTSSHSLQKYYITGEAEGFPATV
Method: All synthesized compounds were tested for their relative activity in β-galactosidase in a yeast estrogen screen (YES) assay. Compounds were tested for their relative estrogenic/anti-estrogenic activities in comparison to positive and negative controls, respectively. YES assay is a gene reporter assay where the DNA sequence of human ERα is integrated into the yeast genome completed with an expression plasmid carrying estrogen response elements (ERE) in the promoter controlling the expression of the reporter gene lacZ (encoding the enzyme β-galactosidase). In the presence of estrogenic compounds, β-galactosidase is synthesized and secreted into the medium, where it converts the chromogenic substrate chlorophenol red-β-D-galactopyranoside (CRPG) from a yellow to a red product, whose absorbance is measured. […] Therefore, we decided to test the novel compounds in an organ-specific in vitro model using the human Ishikawa endometrial adenocarcinoma cell line.
All synthesized compounds were tested for their relative β-galactosidase activity in a yeast estrogen screen (YES) assay at a concentration of 1 µM using DMSO as control (set as 1).
The yeast estrogen receptor assay was supplied by Dr. J.P. Sumpter (Brunel University, Uxbridge, UK) and was used to determine the relative transactivation activity of the human ERα as formerly described. Briefly, Saccharomyces cerevisiae stably transfected with a human ERα and an estrogen-responsive element fused to the reporter gene lacZ encoding for β-galactosidase were treated with the test substances for about 48 h. The β-galactosidase enzymatic activity was measured in a colorimetric assay using a microplate photometer by hydrolysis of the substrate chlorophenol red β-D-galactopyranoside (Roche Diagnostics, Mannheim, Germany), which leads to the formation of chlorophenol red. This can be measured as an increased absorption at 540 nm. All compounds were diluted in DMSO. […] All compounds were tested in technical quadruplicates and biological triplicates. Statistical analysis was performed by analysis of variance (ANOVA) and Tukey’s post-hoc test with the significance level of p < 0.05.

60 NCI tumor cell lines = assay: NCI-60 single-dose growth inhibition screen (SRB); assay type: cell-based, human; settings: for inhibition at 10 µM: Homo sapiens, mean over 60 NCI tumor cell lines; for anti-proliferative activity (in words): 10 µM, NCI-60 panel and MCF-7
Method: The anti-proliferative effects of the novel analogs were tested in vitro by the National Cancer Institute (NCI) on a panel of 60 human tumor cell lines at 10 µM. Compounds that elicited mean growth inhibition ≥50% were selected by the NCI for 5-dose testing.
Compounds were submitted to the Developmental Therapeutics Program (DTP) of the National Cancer Institute (NCI). The program uses a panel of 60 human tumor cell lines representing nine tissue types, including leukemia, non-small cell lung cancer (NSCLC), melanoma, colon cancer, ovarian cancer, CNS cancer, renal cancer, prostate cancer, and breast cancer, to screen for potential new anti-cancer agents. […] Primary screening of synthesized compounds was performed by testing a single high dose of 10 µM in the full NCI-60 panel. The percent growth of treated cells relative to the no-drug control and relative to the time zero number of cells was measured, and a mean graph was provided. The percentage inhibition was then calculated by subtracting the values obtained from 100.
All compounds were subjected to the NCI in vitro disease-oriented human cells screening panel assay. The human tumor cell lines of the cancer-screening panel are grown in RPMI 1640 medium containing 5% fetal bovine serum and 2 mM L-glutamine. For a typical screening experiment, cells are inoculated into 96-well microtiter plates in 100 μL at plating densities ranging from 5000 to 40,000 cells/well depending on the doubling time of individual cell lines. After cell inoculation, the microtiter plates are incubated at 37 °C, 5% CO2, 95% air, and 100% relative humidity for 24 h prior to the addition of experimental drugs. After 24 h, two plates of each cell line are fixed in situ with TCA to represent a measurement of the cell population for each cell line at the time of drug addition. Experimental drugs are solubilized in dimethyl sulfoxide at 400-fold the desired final maximum test concentration and stored frozen prior to use. At the time of drug addition, an aliquot of frozen concentrate is thawed and diluted to twice the desired final maximum test concentration with complete medium containing 50 μg/mL gentamicin. Additional four, 10-fold, or ½ log serial dilutions are made to provide a total of five drug concentrations plus control. Aliquots of 100 μL of these different drug dilutions are added to the appropriate microtiter wells already containing 100 μL of medium, resulting in the required final drug concentrations. Following drug addition, the plates are incubated for an additional 48 h at 37 °C, 5% CO2, 95% air, and 100% relative humidity. For adherent cells, the assay is terminated by the addition of cold TCA. Cells are fixed in situ by the gentle addition of 50 μL of cold 50% (w/v) TCA (final concentration, 10% TCA) and incubated for 60 min at 4 °C. The supernatant is discarded, and the plates are washed five times with tap water and air-dried. Sulforhodamine B (SRB) solution (100 μL) at 0.4% (w/v) in 1% acetic acid is added to each well, and plates are incubated for 10 min at room temperature. After staining, unbound dye is removed by washing five times with 1% acetic acid, and the plates are air-dried. Bound stain is subsequently solubilized with a 10 mM trizma base, and the absorbance is read on an automated plate reader at a wavelength of 515 nm. For suspension cells, the methodology is the same except that the assay is terminated by fixing settled cells at the bottom of the wells by gently adding 50 μL of 80% TCA (final concentration, 16% TCA). Compounds are screened at a dose of 10 µM, hits showing mean growth inhibition over 60 cell lines >50% are escalated for 5-dose screening assay.

| Structure (SMILES) | EC50 (human ERα) [nM] | Estrogenic Activity (relative β-galactosidase activity) (human ERα) | inhibition at 10 µM (60 NCI tumor cell lines) [%] | anti-proliferative activity (in words) (60 NCI tumor cell lines) |
| --- | --- | --- | --- | --- |
| COc1cc(C(C)=C(c2ccc(O)cc2)c2ccc(Cl)cc2)ccc1F [Compound 4, E/Z-4-[1-(4-Chlorophenyl)-2-(4-fluoro-3-methoxyphenyl)propenyl]-phenol] | 258 ± 80 | 6.62 ± 1.74 | 15.4 | lacked anti-proliferative activity |
| COc1ccc(C(C)=C(c2ccc(Cl)cc2)c2ccc(OCCN3CCCCCC3)cc2)cc1 [Compound 14, E/Z-1-(2-{4-[1-(4-Chloro-phenyl)-2-(4-methoxy-phenyl)-propenyl]-phenoxy}-ethyl)-azepane] |  | 1.80 ± 0.09 | 47.3 |  |
| COc1ccc(C(C)=C(c2ccc(Cl)cc2)c2ccc(OCCCN(C)C)cc2)cc1 [Compound 10, E/Z-(3-{4-[1-(4-Chloro-phenyl)-2-(4-methoxy-phenyl)-propenyl]-phenoxy}-propyl)-dimethyl-amine] |  | 11.61 and 11.61 ± 0.99 | 33.4 |  |
| COc1ccc(C(C)=C(c2ccc(Cl)cc2)c2ccc(OCCN3CCOCC3)cc2)cc1 [Compound 13, E/Z-4-(2-{4-[1-(4-Chloro-phenyl)-2-(4-methoxy-phenyl)-propenyl]-phenoxy}-ethyl)-morpholine] |  | 12.41 and 12.41 ± 0.26 | 7.86 | lacked anti-proliferative activity |

Now from value to compound, other results behind:

| EC50 (human ERα) [nM] | Estrogenic Activity (relative β-galactosidase activity) (human ERα) | Structure (SMILES) | inhibition at 10 µM (60 NCI tumor cell lines) [%] | anti-proliferative activity (in words) (60 NCI tumor cell lines) |
| --- | --- | --- | --- | --- |
| 252 ± 8 | 7.28 and 7.28 ± 3.10 | COc1ccc(C(C)=C(c2ccc(Cl)cc2)c2ccc(OCCN3CCCCC3)cc2)cc1F [Compound 17, E/Z-1-(2-{4-[1-(4-Chlorophenyl)-2-(3-fluoro-4-methoxyphenyl)-propenyl]-phenoxy}-ethyl)-piperidine] | 69.1 |  |
|  | 1.76 ± 0.56 | COc1ccc(C(C)=C(c2ccc(Cl)cc2)c2ccc(OCCN3CCOCC3)cc2)cc1F [Compound 18, E/Z-4-(2-{4-[1-(4-Chlorophenyl)-2-(3-fluoro-4-methoxyphenyl)-propenyl]-phenoxy}-ethyl)-morpholine] | 4.23 | lacked anti-proliferative activity |
|  | 1.37 ± 0.39 | CCN(CC)CCOc1ccc(C(=C(C)c2ccc(F)c(OC)c2)c2ccc(Cl)cc2)cc1 [Compound 28, E/Z-(2-{4-[1-(4-Chlorophenyl)-2-(4-fluoro-3-methoxyphenyl)-propenyl]-phenoxy}-ethyl)-diethyl-amine] | 92.3 |  |
| 407 ± 86 | 3.22 and 3.22 ± 1.22 | COc1ccc(C(C)=C(c2ccc(Cl)cc2)c2ccc(OCCN3CCCCCC3)cc2)cc1F [Compound 19, E/Z-1-(2-{4-[1-(4-Chlorophenyl)-2-(3-fluoro-4-methoxyphenyl)-propenyl]-phenoxy}-ethyl)-azepane] | 60.8 |  |
|  | 1.41 ± 1.01 | COc1cc(C(C)=C(c2ccc(Cl)cc2)c2ccc(OCCN3CCCC3)cc2)ccc1F [Compound 23, E/Z-1-(2-{4-[1-(4-Chlorophenyl)-2-(4-fluoro-3-methoxyphenyl)-propenyl]-phenoxy}-ethyl)-pyrrolidine] | 46.9 |  |
